According to patent US20260274892A1, “MACROCYCLIC BROAD SPECTRUM ANTIBIOTICS” (RQx Pharmaceuticals, Inc., priority 2017, published 2026):

Experiments:
[1] = system: Methicillin Resistant Staphylococcus aureus strain USA 200; assay: Minimum inhibitory concentration (MIC), CLSI broth micro-dilution, S. aureus; type: cell-based; conditions: Staphylococcus aureus, MRSA / USA200; Table 6; MRSA USA 200; cation adjusted Mueller Hinton Broth + 0.002% Tween-80; 35° C., 22 hours
Summary of the method: (§1)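 Antibacterial potency is measured as MIC by the CLSI broth dilution method. Bacteria at OD600 0.0005 in Tween-80-supplemented cation-adjusted Mueller Hinton broth face ten twofold compound dilutions for 22 h at 35° C.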

[2] = system: Escherichia coli ATCC 25922; assay: Minimum inhibitory concentration (MIC), CLSI broth micro-dilution, E. coli; type: cell-based; conditions: Escherichia coli, ATCC25922, 22 h, Table 6, cation adjusted Mueller Hinton Broth + 0.002% Tween-80, 35° C.
Summary of the method: as §1

Row | MIC [1] | MIC [2] | SMILES
1 | 0.011 µM | 0.11 µM | Cc1nc(-c2ccc(OCCC(C)C)cc2)nc(C)c1C(=O)N[C@@H](CCN)C(=O)N(C)[C@@H]1C(=O)N[C@@H](C)C(=O)N[C@H](C(=O)NCC#N)Cc2ccc(OCCN)c(c2)-c2cc1ccc2OCCN (racemic) [Compound 329, rac-(8S,11S,14S)-3,18-bis(2-aminoethoxy)-N-(cyanomethyl)-11-methyl-14-[methyl-[rac-(2S)-4-amino-2-[[2-(4-isopentyloxyphenyl)-4,6-dimethyl-pyrimidine-5-carbonyl]amino]butanoyl]amino]-10,13-dioxo-9,12-diazatricyclo[13.3.1.12,6]icosa-1(18),2(20),3,5,15(19),16-hexaene-8-carboxamide]
2 | 0.017 µM | 0.13 µM | Cc1nc(-c2ccc(C3(C)CC3)cc2)ncc1C(=O)N[C@@H](CCN)C(=O)N(C)[C@@H]1C(=O)N[C@@H](C)C(=O)N[C@H](C(=O)NCC#N)Cc2ccc(OCCN)c(c2)-c2cc1ccc2OCCN (racemic) [Compound 224, rac-(8S,11S,14S)-3,18-bis(2-aminoethoxy)-N-(cyanomethyl)-11-methyl-14-[methyl-[rac-(2S)-4-amino-2-[[4-methyl-2-[4-(1-methylcyclopropyl)phenyl]pyrimidine-5-carbonyl]amino]butanoyl]amino]-10,13-dioxo-9,12-diazatricyclo[13.3.1.12,6]icosa-1(18),2(20),3,5,15(19),16-hexaene-8-carboxamide]
3 | 0.13 µM | 6 µM | CCC[C@H](NC(=O)c1c(C)nc(-c2ccc(C(C)(C)C)cc2)nc1C)C(=O)N[C@@H](CCN)C(=O)N(C)[C@@H]1C(=O)N[C@@H](C)C(=O)N[C@H](C(=O)NCC#N)Cc2ccc(OCCN)c(c2)-c2cc1ccc2OCCN (racemic) [Compound 469, rac-(8S,11S,14S)-3,18-bis(2-aminoethoxy)-N-(cyanomethyl)-11-methyl-14-[methyl-[rac-(2S)-4-amino-2-[[rac-(2S)-2-[[2-(4-tert-butylphenyl)-4,6-dimethyl-pyrimidine-5-carbonyl]amino]pentanoyl]amino]butanoyl]amino]-10,13-dioxo-9,12-diazatricyclo[13.3.1.12,6]icosa-1(18),2(20),3,5,15(19),16-hexaene-8-carboxamide]
4 | 0.063 µM | 1.5 µM | Cc1nc(-c2ccc(OC3CCCCC3)cc2)nc(C)c1C(=O)N[C@@H](CNC(N)=O)C(=O)N(C)[C@@H]1C(=O)N[C@@H](C)C(=O)N[C@H](C(=O)NCC#N)Cc2ccc(OCCN)c(c2)-c2cc1ccc2OCCN [Compound 499, (8S,11S,14S)-3,18-bis(2-aminoethoxy)-N-(cyanomethyl)-14-[[(2S)-2-[[2-[4-(cyclohexoxy)phenyl]-4,6-dimethyl-pyrimidine-5-carbonyl]amino]-3-ureido-propanoyl]-methyl-amino]-11-methyl-10,13-dioxo-9,12-diazatricyclo[13.3.1.12,6]icosa-1(18),2(20),3,5,15(19),16-hexaene-8-carboxamide]
5 | 0.012 µM | 0.064 µM | Cc1nc(-c2ccc3c(c2)CCCC3(C)C)nc(C)c1C(=O)N[C@@H](CCN)C(=O)N(C)[C@@H]1C(=O)N[C@@H](C)C(=O)N[C@H](C(=O)NCC#N)Cc2ccc(OCCN)c(c2)-c2cc1ccc2OCCN (racemic) [Compound 270, rac-(8S,11S,14S)-3,18-bis(2-aminoethoxy)-N-(cyanomethyl)-11-methyl-14-[methyl-[rac-(2S)-4-amino-2-[[2-(1,1-dimethyltetralin-6-yl)-4,6-dimethyl-pyrimidine-5-carbonyl]amino]butanoyl]amino]-10,13-dioxo-9,12-diazatricyclo[13.3.1.12,6]icosa-1(18),2(20),3,5,15(19),16-hexaene-8-carboxamide]
6 | 0.063 µM | 0.38 µM | Cc1nc(-c2ccc(C(C)(C)C)cc2)c(N)cc1C(=O)N[C@@H](CCN)C(=O)N(C)[C@@H]1C(=O)N[C@@H](C)C(=O)N[C@H](C(=O)NCC#N)Cc2ccc(OCCN)c(c2)-c2cc1ccc2OCCN (racemic) [Compound 405, rac-(8S,11S,14S)-3,18-bis(2-aminoethoxy)-N-(cyanomethyl)-11-methyl-14-[methyl-[rac-(2S)-4-amino-2-[[5-amino-6-(4-tert-butylphenyl)-2-methyl-pyridine-3-carbonyl]amino]butanoyl]amino]-10,13-dioxo-9,12-diazatricyclo[13.3.1.12,6]icosa-1(18),2(20),3,5,15(19),16-hexaene-8-carboxamide]
7 | 0.063 µM | 0.35 µM | Cc1cc(-c2ccc(C(C)(C)C)cc2)nc(C)c1C(=O)N[C@@H](CCN)C(=O)N(C)[C@@H]1C(=O)N[C@@H](C)C(=O)N[C@H](C(=O)NCC#N)Cc2ccc(O)c(c2)-c2cc1ccc2OCCN (racemic) [Compound 530, rac-(8S,11S,14S)-18-(2-aminoethoxy)-N-(cyanomethyl)-3-hydroxy-11-methyl-14-[methyl-[rac-(2S)-4-amino-2-[[6-(4-tert-butylphenyl)-2,4-dimethyl-pyridine-3-carbonyl]amino]butanoyl]amino]-10,13-dioxo-9,12-diazatricyclo[13.3.1.12,6]icosa-1(18),2(20),3,5,15(19),16-hexaene-8-carboxamide]
8 | 0.047 µM | 0.25 µM | CCCCC1(Oc2ccc(-c3nc(C)c(C(=O)N[C@@H](CCN)C(=O)N(C)[C@@H]4C(=O)N[C@@H](C)C(=O)N[C@H](C(=O)NCC#N)Cc5ccc(OCCN)c(c5)-c5cc4ccc5OCCN)c(C)n3)cc2)CC1 (racemic) [Compound 347, rac-(8S,11S,14S)-3,18-bis(2-aminoethoxy)-N-(cyanomethyl)-11-methyl-14-[methyl-[rac-(2S)-4-amino-2-[[2-[4-(1-butylcyclopropoxy)phenyl]-4,6-dimethyl-pyrimidine-5-carbonyl]amino]butanoyl]amino]-10,13-dioxo-9,12-diazatricyclo[13.3.1.12,6]icosa-1(18),2(20),3,5,15(19),16-hexaene-8-carboxamide]
9 | 0.13 µM | 0.75 µM | CNc1cc(C(=O)N[C@@H](CCN)C(=O)N(C)[C@@H]2C(=O)N[C@@H](C)C(=O)N[C@H](C(=O)NCC#N)Cc3ccc(OCCN)c(c3)-c3cc2ccc3OCCN)c(C)nc1-c1ccc(C(C)(C)C)cc1 (racemic) [Compound 409, rac-(8S,11S,14S)-3,18-bis(2-aminoethoxy)-N-(cyanomethyl)-11-methyl-14-[methyl-[rac-(2S)-4-amino-2-[[6-(4-tert-butylphenyl)-2-methyl-5-(methylamino)pyridine-3-carbonyl]amino]butanoyl]amino]-10,13-dioxo-9,12-diazatricyclo[13.3.1.12,6]icosa-1(18),2(20),3,5,15(19),16-hexaene-8-carboxamide]
10 | 0.0078 µM | 0.063 µM | CCCCCCOc1ccc(-c2nc(C)c(C(=O)N[C@@H](CCN)C(=O)N(C)[C@@H]3C(=O)N[C@@H](C)C(=O)N[C@H](C(=O)NCC#N)Cc4ccc(OCCN)c(c4)-c4cc3ccc4OCCN)c(C)n2)cc1 (racemic) [Compound 332, rac-(8S,11S,14S)-3,18-bis(2-aminoethoxy)-N-(cyanomethyl)-11-methyl-14-[methyl-[rac-(2S)-4-amino-2-[[2-(4-hexoxyphenyl)-4,6-dimethyl-pyrimidine-5-carbonyl]amino]butanoyl]amino]-10,13-dioxo-9,12-diazatricyclo[13.3.1.12,6]icosa-1(18),2(20),3,5,15(19),16-hexaene-8-carboxamide]
11 | 0.008 µM | 0.064 µM | Cc1cc(-c2ccc(OCC(C)(C)C)cc2)nc(C)c1C(=O)N[C@@H](CCN)C(=O)N(C)[C@@H]1C(=O)N[C@@H](C)C(=O)N[C@H](C(=O)NCC#N)Cc2ccc(OCCN)c(c2)-c2cc1ccc2OCCN (racemic) [Compound 359, rac-(8S,11S,14S)-3,18-bis(2-aminoethoxy)-N-(cyanomethyl)-11-methyl-14-[methyl-[rac-(2S)-4-amino-2-[[6-[4-(2,2-dimethylpropoxy)phenyl]-2,4-dimethyl-pyridine-3-carbonyl]amino]butanoyl]amino]-10,13-dioxo-9,12-diazatricyclo[13.3.1.12,6]icosa-1(18),2(20),3,5,15(19),16-hexaene-8-carboxamide]
12 | 0.045 µM | 0.48 µM | CCCCCCOc1ccc(-c2cc(-c3ccc(C(=O)N[C@@H](CCN)C(=O)N(C)[C@@H]4C(=O)N[C@@H](C)C(=O)N[C@H](C(=O)NCC#N)Cc5ccc(OCCN)c(c5)-c5cc4ccc5OCCN)cc3)no2)cc1 (racemic) [Compound 380, rac-(8S,11S,14S)-3,18-bis(2-aminoethoxy)-N-(cyanomethyl)-11-methyl-14-[methyl-[rac-(2S)-4-amino-2-[[4-[5-(4-hexoxyphenyl)isoxazol-3-yl]benzoyl]amino]butanoyl]amino]-10,13-dioxo-9,12-diazatricyclo[13.3.1.12,6]icosa-1(18),2(20),3,5,15(19),16-hexaene-8-carboxamide]

Row | SMILES | MIC [1] | MIC [2]
13 | Cc1nc(-c2ccc(COC(C)(C)C)cc2)nc(C)c1C(=O)N[C@@H](CCN)C(=O)N(C)[C@@H]1C(=O)N[C@@H](C)C(=O)N[C@H](C(=O)NCC#N)Cc2ccc(OCCN)c(c2)-c2cc1ccc2OCCN (racemic) [Compound 343, rac-(8S,11S,14S)-3,18-bis(2-aminoethoxy)-N-(cyanomethyl)-11-methyl-14-[methyl-[rac-(2S)-4-amino-2-[[2-[4-(tert-butoxymethyl)phenyl]-4,6-dimethyl-pyrimidine-5-carbonyl]amino]butanoyl]amino]-10,13-dioxo-9,12-diazatricyclo[13.3.1.12,6]icosa-1(18),2(20),3,5,15(19),16-hexaene-8-carboxamide] | 0.13 µM | 0.75 µM
